Reference: paper PMC8476547, “Epigenetic derepression converts PPARγ into a druggable target in triple-negative and endocrine-resistant breast cancers” (Cell Death Discovery, 2021)

Columns and labels:
[1] = test system: luciferase-labeled, triple-negative MDA-MB-231 cells; experiment: Orthotopic mammary fat pad xenograft, bioluminescent tumor burden; assay type: in vivo, mouse; conditions: day 28; LBH589 2.5 mg/kg, rosiglitazone 10 mg/kg or both, i.p. five days per week for four weeks; control 9.9 ± 6.2
Protocol: Female NCr nude mice (CrTac:NCr-Foxn1nu) aged 7 weeks were purchased from InVivos, Singapore. […] Mice were acclimatized to laboratory conditions for a minimum of 3 days prior to study initiation. All surgical procedures were performed under strict aseptic conditions according to the protocol approved by the SingHealth Institutional Animal Care and Use Committee (IACUC). […] A 1-cm incision was made at the abdominal mammary fat pad area. […] The incision was closed with wound clips (Stoelting Co, USA). To relieve post-surgical pain and prevent dehydration following surgery, 1 ml of 2 mg/ml meloxicam (Troy Ilium, Australia), diluted in 0.9% saline (B. Braun, Germany) was administered subcutaneously at the right flank of mice after surgery. Mice were recovered on a heating pad until fully awake from anesthesia before being returned to cages. Tumor growth was screened by imaging from the ventral view using the Xenogen IVIS system (Caliper Life Sciences, CA, USA). […] Bioluminescent signals around the tumor sites were identified and quantified as total photon counts using Living Image 4.2 software (Xenogen). […] The bodyweight of mice was measured prior to drug administration. Tumor growth was monitored twice a week using the Xenogen IVIS system throughout the entire 28 days of treatment. […]

[2] = Cellular IC50 of LBH589; assay type: cell-based
[3] = test system: MDA-MB-231 CAM tumor; experiment: Chick chorioallantoic membrane (CAM) tumor vascularization, ultrasound imaging; assay type: in vivo; conditions: single treatments, 48 h
Protocol: On Embryonic Day 3, a sharp weighted tool was used to poke a hole at the apex of the eggshell, and 3 mL of albumin was removed using a 5 ml syringe and 18G needle in order to drop the chick chorioallantoic membrane (CAM). The sharp-weighted tool was then used to poke a hole in the middle of the egg before using curved scissors to cut a 1cm2 hole. The eggs were screened, and dead embryos were removed.
On Embryonic Day 7, MDA-MB-231 cells were prepared for inoculation onto the CAM. DMEM was aspirated, cells were washed with PBS before the addition of 1 ml of 2.5 g/l Trypsin/EDTA solution onto the culture dish. The cells were then removed into a 15 ml Falcon tube and centrifuged for 3 min at 1200 rpm, before the supernatant was removed. Matrigel was added to the cell pellet on ice to resuspend the pellet, before the addition of 2 × 10^6 cells in a 50 µl of Matrigel-cell mixture onto CAM. […]
On Embryonic Day 10, the Tegaderm membrane was removed and Aquasonic gel was added onto the cling wrap which was carefully placed over the CAM. […] Tumor volumes and percentage vasculature were calculated by the Vevo Lab 1.7.0 programme.
Twenty microliters of single or combination treatments of LBH589 and rosiglitazone were added onto a 3.5 mm diameter autoclaved filter paper placed next to the formed tumor on the CAM. […] Percentage changes were calculated based on before and after drug treatment.

[4] = test system: PPARγ; experiment: PPRE-luciferase reporter assay (PPARγ activity); assay type: cell-based, human; conditions: MCF7, T47D, MDA-MB-231 and BT549 cells; 0, 50, 100 nM LBH589, 16 h
Excerpt: We took advantage of the fact that downstream genes targeted by this transcription factor contain peroxisome proliferator response elements (PPRE), where it binds. […] To provide assurance that the enhanced bioluminescence is attributable to PPARγ receptor activation rather than some off-target consequence of pan-HDAC inhibition, we repeated the luciferase assays but modified the experiments to eliminate the contribution of PPARγ (Supplementary Results: Part S2).

[5] = test system: PPARγ; experiment: Immunoprecipitation of FLAG-tagged PPARγ, acetyl-lysine immunoblot; assay type: cell-based, human; conditions: MCF7 cells, 50 nM LBH589, first hour; overall FLAG-tagged PPARγ unchanged
Protocol: For detection of acetylation of PPARγ, immunoprecipitation with PPARγ was performed. Cells were seeded at […] density and transfected with FLAG-tagged PPARγ before treatment with LBH589. Cells were harvested and cell pellets were lysed in immunoprecipitation (IP) lysis buffer (pH 8). Two hundred and fifty micrograms of proteins were pre-cleared with magnetic G beads (Millipore, Bedford, MA) for 1 h before rotating with 1 μg of FLAG antibody or normal rabbit IgG overnight at 4 °C. Magnetic G beads were added to the mixture the next day and rotated for 1.5 h. Magnetic-enriched IP samples were washed four times in cold wash buffer (200 mM Tris [pH 8.0], 100 mM NaCl, 0.5% NP-40, 2 mM DTT, 0.5 mM PMSF, 1 mM sodium orthovanadate, 1 μg/ml leupeptin, and 1 μg/ml aprotinin) at 10 min intervals. Samples were then boiled in 5× SDS loading buffer and subjected to SDS-PAGE. Proteins were then transferred to PVDF membranes and detected for acetyl-lysine.

[6] = test system: PPARγ; experiment: PPARγ mRNA and protein expression (RT-PCR, western blot); assay type: cell-based, human; conditions: MCF7 and MDA-MB-231, 50 nM LBH589, from the 3 h mark to 18 h
Protocol: Total RNA was isolated from cells using TRIZOL reagent (Invitrogen, Carlsbad, CA, USA), as described in the manufacturer’s instructions with a DNAse treatment step incorporated into the protocol. Each RT reaction contained 2.5 µg of total RNA, 1× RT buffer, 5 mM MgCl2, 425 µM each of dNTPs, 2 µM random hexamers, 0.35U/µl RNase inhibitor, and 1.1U/µl MultiScribe™ reverse transcriptase and made up to 10 µl with sterile water. The RT reaction was carried out at 37 °C for 1 h. Five microlitres of the 10 µl cDNA reaction volume were used in real-time quantitative PCR using ABI PRISM 7500 (Applied Biosystems, Foster City, CA, USA). Normalization was endogenous 18S. Fluorescence was measured with the Sequence Detection Systems 2.0 software. PCR was performed in multiplex (both target and endogenous control co-amplified in the same reaction) with distinct fluorescent dyes. Primers and probes for human 18S, human PPARγ, BIRC5, CyclinD1, VEGFA, and MnSOD were purchased from Applied Biosystems (Assays on Demand).

[7] = test system: ERα; experiment: ERα receptor expression (western blot); assay type: cell-based, human; conditions: ER-positive cell lines MCF7 and T47D
[8] = mouse, in vivo, ip, 7.5 mg/kg
Protocol: (§1) A total of 39 mice were randomly assigned to 5 treatment groups with at least 7 animals in each group. Mice were treated with vehicle (10% DMSO), 2.5 mg/kg or 7.5 mg/kg of LBH589, 10 mg/kg, or 20 mg/kg of Rosiglitazone via i.p. injection five days per week. The animals were evaluated for changes in clinical signs (stooling, activity level, and body weight). Bodyweight was measured prior to dosing and mice were monitored regularly for any signs of distress after drug administration. All mice were humanely euthanized after 24 days.

[9] = test system: untransformed human breast epithelial cell lines MCF10A and MCF12A; experiment: PPARγ expression, activity and cell viability in normal breast epithelial cells; conditions: 0, 50, 100 nM LBH589, 24 h
Protocol: Whole-cell lysates were prepared with RIPA lysis buffer containing 10 mM Tris-HCL pH7.4, 30 mM NaCl, 1 mM EDTA, 1% Nonidet P-40, supplemented with 1 mM sodium orthovanadate (Na3VO4), 1 µg/ml leupeptin, 1 µg/ml pepstatin A, 1 µg/ml aprotinin, and 1 mM PMSF before use. […] Thereafter, proteins were transferred onto nitrocellulose membranes, blocked for 1 h at room temperature with 5% non-fat milk, and incubated overnight at 4 °C with the primary antibody. After probing with a secondary antibody for 1 h at 25 °C, protein bands were detected by using the Supersignal West Pico Chemiluminescent substrate kit. β-actin antibody was used as a loading control.
The luciferase reporter construct used was pPPRE-tk-Luc, which contains three PPREs from the rat acyl-CoA oxidase promoter under the control of the Herpes simplex virus thymidine kinase promoter (kind gift from Dr. Ronald M. Evans, The Salk Institute for Biological Studies, San Diego, CA, USA). 3× PPRE promoter activities were assessed with a dual-luciferase assay kit. […] Ten microlitres of cell lysate were then added to 50 μl of the luciferase substrate solution, following which 50 μl of stop and glow buffer was added for Renilla reading. Bioluminescence generated was measured using a Sirius luminometer (Berthold, Munich, Germany). The luminescence readings obtained were normalized to the protein content of the corresponding cell lysate. […]

[10] = Toxicity study in NCr nude mice; conditions: LBH589 2.5 or 7.5 mg/kg, rosiglitazone 10 or 20 mg/kg, i.p. five days per week, three-week cycle
Protocol: as §1

Cc1[nH]c2ccccc2c1CCNCc1ccc(/C=C/C(=O)NO)cc1 [LBH589]
relative tumor burden (fold change in bioluminescent signal normalized to pre-treatment radiance levels) [1]: 5.8 ± 3.7 fold
IC50 [2]: 50 nM
CAM tumor volume / tumor size compared to DMSO control [3]: did not have any significant effects
changes in CAM vascular volumes compared to DMSO [3]: No significant changes
PPRE-luciferase reporter activity [4]: dose-dependently enhanced
acetylated PPARγ [5]: marked initial accumulation
intracellular PPARγ mRNA and protein [6]: steady and gradual rise
ERα receptor expression [7]: dose-dependently suppressed
clinical signs (weight gain, stooling) compared to lower dosage or placebo [8]: less weight gain and softer stools
PPARγ expression and activity [9]: did not upregulate PPARγ expression or augment its activity

CN(CCOc1ccc(CC2SC(=O)NC2=O)cc1)c1ccccn1 (stereo not drawn) [rosiglitazone]
relative tumor burden (fold change in bioluminescent signal normalized to pre-treatment radiance levels) [1]: 5.3 ± 0.8 fold
loss of original bodyweight [10]: ≤ 10%
